Each compound was assayed against purified human MMP-12 enzyme (Homo sapiens, UniProt P39900) (assay: MMP-12 FRET assay). Conditions: substrate 20 μM, room temperature.
Assay type: biochemical
Summary of the method: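 Enzyme pre-incubated 30 min at room temperature with compound in 50 mM HEPES pH 7.4, 100 mM NaCl, 5 mM CaCl2, 0.005% Brij-35, 10% DMSO final. Reaction started with 20 μM MCA-Pro-Leu-Gly-Leu-Dpa(DNP)-Ala-Arg, and initial cleavage rate read over 30 min (λex 325, λem 395 nm). IC50 from slope-factor inhibition fit.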

Chain of purified human MMP-12 enzyme (P39900 106-470): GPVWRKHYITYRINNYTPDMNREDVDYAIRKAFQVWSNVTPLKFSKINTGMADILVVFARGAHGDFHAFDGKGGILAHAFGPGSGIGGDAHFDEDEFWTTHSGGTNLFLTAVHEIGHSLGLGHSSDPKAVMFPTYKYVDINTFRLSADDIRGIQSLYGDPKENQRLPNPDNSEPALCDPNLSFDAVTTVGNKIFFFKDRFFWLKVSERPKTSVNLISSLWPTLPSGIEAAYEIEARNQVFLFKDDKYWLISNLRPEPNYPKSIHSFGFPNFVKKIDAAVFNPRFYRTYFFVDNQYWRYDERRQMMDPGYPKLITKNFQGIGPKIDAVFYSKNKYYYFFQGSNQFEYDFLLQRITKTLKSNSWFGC

Point of comparison: `CC(C)[C@@H](NS(=O)(=O)c1ccc2oc3cc(-c4ccc(Br)s4)ccc3c2c1)C(=O)O` [Compound 144, (R)-2-(7-(5-bromothiophen-2-yl)dibenzo[b,d]furan-2-sulfonamido)-3-methylbutanoic acid], IC50 2.2 nM. Against it:
- CCNC(=N)c1ccc2oc3cc(S(=O)(=O)N[C@H](C(=O)O)C(C)C)ccc3c2c1 [Compound 128, (S)-2-(8-(N-ethylcarbamimidoyl)dibenzo[b,d]furan-3-sulfonamido)-3-methylbutanoic acid] — 33-fold higher, 73 nM
- CC(C)[C@@H](NS(=O)(=O)c1ccc2c(c1)sc1cc(-c3ccco3)ccc12)C(=O)O [Compound 129, (R)-2-(7-(furan-2-yl)dibenzo[b,d]thiophene-3-sulfonamido)-3-methylbutanoic acid] — lower, < 1.5 nM
- CC(C)[C@H](NS(=O)(=O)c1ccc2c(c1)oc1ccc(-c3nn[nH]n3)cc12)C(=O)O [Compound 130, (S)-2-(8-(2H-tetrazol-5-yl)dibenzo[b,d]furan-3-sulfonamido)-3-methylbutanoic acid] — 860-fold higher, 1900 nM
- CC(C)[C@H](NS(=O)(=O)c1ccc2c(c1)oc1ccc(-c3ccc(C(F)(F)F)s3)cc12)C(=O)O [Compound 131, (S)-3-methyl-2-(8-(5-(trifluoromethyl)thiophen-2-yl)dibenzo[b,d]furan-3-sulfonamido)butanoic acid] — lower, < 1.5 nM
- CC(C)[C@H](NS(=O)(=O)c1ccc2c(c1)oc1ccc(-c3nnn(C)n3)cc12)C(=O)O [Compound 132, (S)-3-methyl-2-(8-(2-methyl-2H-tetrazol-5-yl)dibenzo[b,d]furan-3-sulfonamido)butanoic acid] — within 1.5-fold, 2 nM
- CC(C)[C@@H](NS(=O)(=O)c1ccc2oc3cc(-c4noc(C(C)(C)C)n4)ccc3c2c1)C(=O)O [Compound 133, (R)-2-(7-(5-tert-butyl-1,2,4-oxadiazol-3-yl)dibenzo[b,d]furan-2-sulfonamido)-3-methylbutanoic acid] — 3.6-fold higher, 8 nM
- CC(C)[C@H](NS(=O)(=O)c1ccc2c(c1)oc1ccc(-c3oc(Cl)cc3Cl)cc12)C(=O)O [Compound 134, (S)-2-(8-(3,5-dichlorofuran-2-yl)dibenzo[b,d]furan-3-sulfonamido)-3-methylbutanoic acid] — within 1.5-fold, 2.5 nM
- Cc1ccc(-c2ccc3c(c2)oc2cc(S(=O)(=O)N[C@H](C(=O)O)C(C)C)ccc23)o1 [Compound 135, (S)-3-methyl-2-(7-(5-methylfuran-2-yl)dibenzo[b,d]furan-3-sulfonamido)butanoic acid] — lower, < 1.5 nM
- CC(C)[C@H](NS(=O)(=O)c1ccc2c(c1)oc1cc(-c3cc4ccccc4s3)ccc12)C(=O)O [Compound 136, (S)-2-(7-(benzo[b]thiophen-2-yl)dibenzo[b,d]furan-3-sulfonamido)-3-methylbutanoic acid] — lower, < 1.5 nM
- CC(C)[C@H](NS(=O)(=O)c1ccc2c(c1)oc1cc(-c3nccs3)ccc12)C(=O)O [Compound 137, (S)-3-methyl-2-(7-(thiazol-2-yl)dibenzo[b,d]furan-3-sulfonamido)butanoic acid] — 5-fold higher, 11 nM
- CC(C)c1nc(-c2ccc3c(c2)oc2ccc(S(=O)(=O)N[C@@H](C(=O)O)C(C)C)cc23)no1 [Compound 138, (R)-2-(7-(5-isopropyl-1,2,4-oxadiazol-3-yl)dibenzo[b,d]furan-2-sulfonamido)-3-methylbutanoic acid] — within 1.5-fold, 2.8 nM
- Cc1nc(-c2ccc3c(c2)oc2ccc(S(=O)(=O)N[C@@H](C(=O)O)C(C)C)cc23)no1 [Compound 139, (R)-3-methyl-2-(7-(5-methyl-1,2,4-oxadiazol-3-yl)dibenzo[b,d]furan-2-sulfonamido)butanoic acid] — 4.2-fold higher, 9.2 nM
- CC(C)[C@@H](NS(=O)(=O)c1ccc2oc3cc(-c4noc(C(F)(F)F)n4)ccc3c2c1)C(=O)O [Compound 141, (R)-3-methyl-2-(7-(5-(trifluoromethyl)-1,2,4-oxadiazol-3-yl)dibenzo[b,d]furan-2-sulfonamido)butanoic acid] — 6.4-fold higher, 14 nM
- Cc1ccc(-c2ccc3c(c2)oc2cc(S(=O)(=O)N[C@H](C(=O)O)C(C)C)ccc23)s1 [Compound 142, (S)-3-methyl-2-(7-(5-methylthiophen-2-yl)dibenzo[b,d]furan-3-sulfonamido)butanoic acid] — within 1.5-fold, 2.5 nM
- CC(C)[C@H](NS(=O)(=O)c1ccc2c(c1)oc1cc(-c3cc4ccccc4o3)ccc12)C(=O)O [Compound 143, (S)-2-(7-(benzofuran-2-yl)dibenzo[b,d]furan-3-sulfonamido)-3-methylbutanoic acid] — 2-fold lower, 1.1 nM
- Cc1noc(C)c1-c1ccc2c(c1)oc1ccc(S(=O)(=O)N[C@@H](C(=O)O)C(C)C)cc12 [Compound 145, (R)-2-(7-(3,5-dimethylisoxazol-4-yl)dibenzo[b,d]furan-2-sulfonamido)-3-methylbutanoic acid] — 13-fold higher, 29 nM
- Cc1nnc(-c2ccc3oc4cc(S(=O)(=O)N[C@H](C(=O)O)C(C)C)ccc4c3c2)s1 [Compound 146, (S)-3-methyl-2-(8-(5-methyl-1,3,4-thiadiazol-2-yl)dibenzo[b,d]furan-3-sulfonamido)butanoic acid] — within 1.5-fold, 1.7 nM
- CC(C)[C@@H](NS(=O)(=O)c1ccc2oc3cc(-c4noc(C5CC5)n4)ccc3c2c1)C(=O)O [Compound 147, (R)-2-(7-(5-cyclopropyl-1,2,4-oxadiazol-3-yl)dibenzo[b,d]furan-2-sulfonamido)-3-methylbutanoic acid] — lower, < 1.5 nM
- CC(C)[C@@H](NS(=O)(=O)c1ccc2oc3cc(-c4noc(C5CCC5)n4)ccc3c2c1)C(=O)O [Compound 148, (R)-2-(7-(5-cyclobutyl-1,2,4-oxadiazol-3-yl)dibenzo[b,d]furan-2-sulfonamido)-3-methylbutanoic acid] — lower, < 1.5 nM
- CC(C)Cc1nc(-c2ccc3c(c2)oc2ccc(S(=O)(=O)N[C@@H](C(=O)O)C(C)C)cc23)no1 [Compound 149, (R)-2-(7-(5-isobutyl-1,2,4-oxadiazol-3-yl)dibenzo[b,d]furan-2-sulfonamido)-3-methylbutanoic acid] — 2.4-fold higher, 5.3 nM
- CC(C)[C@@H](NS(=O)(=O)c1ccc2oc3cc(-c4noc(-c5ccccc5)n4)ccc3c2c1)C(=O)O [Compound 150, (R)-3-methyl-2-(7-(5-phenyl-1,2,4-oxadiazol-3-yl)dibenzo[b,d]furan-2-sulfonamido)butanoic acid] — 2.3-fold higher, 5 nM
- CC(C)[C@H](NS(=O)(=O)c1ccc2c(c1)oc1ccc(-c3nc4ccccc4s3)cc12)C(=O)O [Compound 151, (S)-2-(8-(benzo[d]thiazol-2-yl)dibenzo[b,d]furan-3-sulfonamido)-3-methylbutanoic acid] — lower, < 1.5 nM
- CC(C)[C@H](NS(=O)(=O)c1ccc2c(c1)oc1ccc(-c3cncnc3)cc12)C(=O)O [Compound 152, (S)-3-methyl-2-(8-(pyrimidin-5-yl)dibenzo[b,d]furan-3-sulfonamido)butanoic acid] — lower, < 1.5 nM
- COc1ncc(-c2ccc3oc4cc(S(=O)(=O)N[C@H](C(=O)O)C(C)C)ccc4c3c2)cn1 [Compound 153, (S)-2-(8-(2-methoxypyrimidin-5-yl)dibenzo[b,d]furan-3-sulfonamido)-3-methylbutanoic acid] — lower, < 1.5 nM
- CC(C)c1nc(-c2ccc3c(c2)oc2cc(S(=O)(=O)N[C@H](C(=O)O)C(C)C)ccc23)no1 [Compound 154, (S)-2-(7-(5-isopropyl-1,2,4-oxadiazol-3-yl)dibenzo[b,d]furan-3-sulfonamido)-3-methylbutanoic acid] — 15-fold higher, 32 nM
- CC(C)[C@H](NS(=O)(=O)c1ccc2c(c1)oc1cc(-c3noc(C(C)(C)C)n3)ccc12)C(=O)O [Compound 155, (S)-2-(7-(5-tert-butyl-1,2,4-oxadiazol-3-yl)dibenzo[b,d]furan-3-sulfonamido)-3-methylbutanoic acid] — 5-fold higher, 11 nM
- Cc1nc(-c2ccc3c(c2)oc2cc(S(=O)(=O)N[C@H](C(=O)O)C(C)C)ccc23)no1 [Compound 156, (S)-3-methyl-2-(7-(5-methyl-1,2,4-oxadiazol-3-yl)dibenzo[b,d]furan-3-sulfonamido)butanoic acid] — 3.1-fold higher, 6.9 nM
- CCC(C)Cn1cc(-c2ccc3oc4cc(S(=O)(=O)N[C@H](C(=O)O)C(C)C)ccc4c3c2)cn1 (stereo partly drawn) [Compound 157, (2S)-3-methyl-2-(8-(1-(2-methylbutyl)-1H-pyrazol-4-yl)dibenzo[b,d]furan-3-sulfonamido)butanoic acid] — 6.8-fold higher, 15 nM
- CC(C)[C@H](NS(=O)(=O)c1ccc2c(c1)oc1ccc(-c3cnn(CCN4CCOCC4)c3)cc12)C(=O)O [Compound 158, (S)-3-methyl-2-(8-(1-(2-morpholinoethyl)-1H-pyrazol-4-yl)dibenzo[b,d]furan-3-sulfonamido)butanoic acid] — 100-fold higher, 223 nM
- CC(C)Cn1cc(-c2ccc3oc4cc(S(=O)(=O)N[C@H](C(=O)O)C(C)C)ccc4c3c2)cn1 [Compound 159, (S)-2-(8-(1-isobutyl-1H-pyrazol-4-yl)dibenzo[b,d]furan-3-sulfonamido)-3-methylbutanoic acid] — 2.8-fold higher, 6.2 nM
- Cc1nn(C)c(C)c1-c1ccc2oc3cc(S(=O)(=O)N[C@H](C(=O)O)C(C)C)ccc3c2c1 [Compound 160, (S)-3-methyl-2-(8-(1,3,5-trimethyl-1H-pyrazol-4-yl)dibenzo[b,d]furan-3-sulfonamido)butanoic acid] — 10-fold higher, 22 nM
- Cc1onc(-c2ccccc2)c1-c1ccc2oc3cc(S(=O)(=O)N[C@H](C(=O)O)C(C)C)ccc3c2c1 [Compound 161, (S)-3-methyl-2-(8-(5-methyl-3-phenylisoxazol-4-yl)dibenzo[b,d]furan-3-sulfonamido)butanoic acid] — 37-fold higher, 82 nM
- Cc1c(-c2ccc3oc4cc(S(=O)(=O)N[C@H](C(=O)O)C(C)C)ccc4c3c2)cnn1-c1ccccc1 [Compound 162, (S)-3-methyl-2-(8-(5-methyl-1-phenyl-1H-pyrazol-4-yl)dibenzo[b,d]furan-3-sulfonamido)butanoic acid] — lower, < 1.5 nM
- Cc1nc(-c2ccccc2)sc1-c1ccc2oc3cc(S(=O)(=O)N[C@H](C(=O)O)C(C)C)ccc3c2c1 [Compound 163, (S)-3-methyl-2-(8-(4-methyl-2-phenylthiazol-5-yl)dibenzo[b,d]furan-3-sulfonamido)butanoic acid] — 77-fold higher, 170 nM
